Data: publication PMC6222450, “Computer-Aided Studies for Novel Arylhydantoin 1,3,5-Triazine Derivatives as 5-HT6 Serotonin Receptor Ligands with Antidepressive-Like, Anxiolytic and Antiobesity Action In Vivo” (Molecules : A Journal of Synthetic Chemistry and Natural …, 2018)
Values joined by “and” are separate entries in the source; they are usually repeats but may differ in a detail not shown here. Equal values may be shown once.

Assays:
[1] = target: T1, 5-HT1A (Homo sapiens, UniProt P08908); experiment: Radioligand binding assay, 5-HT1A, [3H]-8-OH-DPAT; settings: human receptor stably expressed in HEK-293 cells
T1 construct: expressed in transfected cells; host or cells: HEK-293
T1 sequence (P08908 1-422): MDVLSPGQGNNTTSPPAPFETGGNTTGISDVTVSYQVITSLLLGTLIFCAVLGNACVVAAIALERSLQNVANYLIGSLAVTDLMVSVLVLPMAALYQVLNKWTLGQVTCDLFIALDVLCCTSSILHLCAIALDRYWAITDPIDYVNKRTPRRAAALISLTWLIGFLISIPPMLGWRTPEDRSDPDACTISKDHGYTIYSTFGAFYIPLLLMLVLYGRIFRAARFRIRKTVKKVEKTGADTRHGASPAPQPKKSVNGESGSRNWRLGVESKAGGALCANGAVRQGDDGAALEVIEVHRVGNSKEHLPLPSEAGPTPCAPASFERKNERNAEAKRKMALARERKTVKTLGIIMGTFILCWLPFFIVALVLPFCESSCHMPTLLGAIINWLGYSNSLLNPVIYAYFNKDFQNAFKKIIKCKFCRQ

[2] = Lipophilicity by RP-TLC; type: physicochemical; settings: RP-18 TLC, water/methanol, extrapolated to 100% water
Experimental: For comparison, the active arylmethyl-triazine compounds previously found (1–3) were also examined. Stationary phase RP-18 and mixtures of water/methanol […] as a mobile phase were employed. RM values were calculated from the RF data obtained. […] The regression coefficients (r^2) determined for all compounds were higher than 0.95. On the basis of the linear relationship between RM values and the volume fraction of methanol, values of RM0 in the systems analyzed corresponding to 100% of water were obtained by extrapolation. RM0 values received for the compounds tested ranged from 3.14 to 4.49 (Figure 6).
The mobile phases were prepared by mixing the respective amounts of water and organic modifier (methanol) in a range from 40 to 90% (v/v) in 5% increments. TLC was performed on Silica gel 60RP-18 F254 plates (7 × 10 cm) plates (Merck, Darmstadt, Germany). Methanol was used to prepare the solutions of the substances. Solutions (10 µL) of the analyzed compounds were applied to the plates as 5 mm bands, 10 mm apart and 10 mm from the lower edge and sides of the plates, by using Linomat V applicator (Camag, Basel, Switzerland). The vertical chamber (Sigma–Aldrich, St. Louis, MI, USA), 20 × 10 × 18 cm in size, was saturated with mobile phase for 20 min. Development was carried out over 9 cm from the starting line at a temperature of 20 °C. Next, the plates were dried at room temperature, and the spots were observed under ultraviolet light at 254 nm and/or 366 nm (UV lamp, Camag, Basel, Switzerland). In each case, sharp and symmetric spots without a tendency for tailing were obtained. Each experiment was run in triplicate and mean RF (retardation factor) values were calculated.
Starting from the RF values, the RM parameters were computed as described in the formula:RM = log(1/RF − 1)
The linear correlations between the RM values of the substances and the concentration of methanol in mobile phases were calculated for each compound with the Soczewiński-Wachtmeister equation [22]:RM = RM0 + aC where C is the concentration of the organic modifier (in %) in the mobile phase, a is the slope, and RM0 is the […].

[3] = target: T2, human serotonin 5-HT6R (Homo sapiens, UniProt P50406); experiment: Radioligand binding assay, 5-HT6R, [3H]-LSD displacement; settings: for Ki: human receptor stably expressed in HEK-293 cells, mean of at least two independent experiments, read-out: Ki 5-HT6 [3H]-LSD
T2 construct: expressed in transfected cells; host or cells: HEK-293
T2 sequence (P50406 whole entry): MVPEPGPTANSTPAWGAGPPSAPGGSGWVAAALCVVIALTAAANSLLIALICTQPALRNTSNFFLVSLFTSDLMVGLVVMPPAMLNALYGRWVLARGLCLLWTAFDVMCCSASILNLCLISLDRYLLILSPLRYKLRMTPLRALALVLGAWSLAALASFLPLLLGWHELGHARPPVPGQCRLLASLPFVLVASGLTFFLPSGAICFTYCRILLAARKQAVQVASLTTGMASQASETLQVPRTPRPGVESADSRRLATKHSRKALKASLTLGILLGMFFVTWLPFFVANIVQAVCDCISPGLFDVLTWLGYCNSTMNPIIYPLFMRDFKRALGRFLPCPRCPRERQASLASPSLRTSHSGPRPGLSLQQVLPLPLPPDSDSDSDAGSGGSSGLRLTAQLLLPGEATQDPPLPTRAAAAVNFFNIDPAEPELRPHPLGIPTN
Experimental: Five selective radioligands were employed (Table 1).
Radioligand binding assays were used to determine the affinity of the synthesized compounds for human serotonin 5-HT6R, which were stably expressed in HEK-293 cells. […] Each compound was tested in triplicate at 7 to 8 different concentrations (10^−11 to 10^−4 M). The inhibition constants (Ki) were calculated using the Cheng–Prusoff equation [40], and the results are expressed as the mean of at least two independent experiments.

[4] = target: T3, dopaminergic D2LR (Homo sapiens, UniProt P14416); experiment: Radioligand binding assay, D2LR, [3H]-Raclopride; settings: human D2L receptor stably expressed in HEK-293 cells; read-out: Ki D2 [3H]-Raclopride
T3 construct: expressed in transfected cells; host or cells: HEK-293
T3 sequence (P14416 whole entry): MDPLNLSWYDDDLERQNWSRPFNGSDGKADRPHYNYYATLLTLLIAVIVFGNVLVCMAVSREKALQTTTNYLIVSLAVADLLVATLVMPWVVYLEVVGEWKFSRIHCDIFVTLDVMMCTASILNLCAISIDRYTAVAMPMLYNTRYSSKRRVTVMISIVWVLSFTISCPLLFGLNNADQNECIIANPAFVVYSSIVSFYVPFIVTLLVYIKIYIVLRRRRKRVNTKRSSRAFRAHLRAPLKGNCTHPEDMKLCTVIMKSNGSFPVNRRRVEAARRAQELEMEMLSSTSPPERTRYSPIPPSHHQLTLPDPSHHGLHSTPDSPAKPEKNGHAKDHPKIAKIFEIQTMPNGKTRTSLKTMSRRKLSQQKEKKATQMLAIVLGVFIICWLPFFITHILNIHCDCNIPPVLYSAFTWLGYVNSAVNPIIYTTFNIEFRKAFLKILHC

[5] = target: T4, 5-HT7bR (Homo sapiens, UniProt P34969); experiment: Radioligand binding assay, 5-HT7bR, [3H]-5-CT; settings: human 5-HT7b receptor stably expressed in HEK-293 cells; read-out: Ki 5-HT7 [3H]-5-CT
T4 construct: expressed in transfected cells; host or cells: HEK-293
T4 sequence (P34969 1-432 limits assumed): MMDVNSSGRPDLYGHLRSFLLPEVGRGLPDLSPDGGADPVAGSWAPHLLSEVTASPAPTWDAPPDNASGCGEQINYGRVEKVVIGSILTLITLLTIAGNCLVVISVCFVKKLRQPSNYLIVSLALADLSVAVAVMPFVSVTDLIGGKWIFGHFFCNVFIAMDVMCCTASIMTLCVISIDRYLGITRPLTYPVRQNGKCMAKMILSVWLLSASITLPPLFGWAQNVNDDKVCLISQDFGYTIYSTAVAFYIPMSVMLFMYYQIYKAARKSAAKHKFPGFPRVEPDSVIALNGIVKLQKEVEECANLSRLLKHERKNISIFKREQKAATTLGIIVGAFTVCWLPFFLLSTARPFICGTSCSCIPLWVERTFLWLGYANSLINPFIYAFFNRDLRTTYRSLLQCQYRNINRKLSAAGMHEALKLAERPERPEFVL

[6] = target: T5, 5-HT2A (Homo sapiens, UniProt P28223); experiment: Radioligand binding assay, 5-HT2A, [3H]-Ketanserin; settings: human receptor stably expressed in HEK-293 cells
T5 construct: expressed in transfected cells; host or cells: HEK-293
T5 sequence (P28223 whole entry): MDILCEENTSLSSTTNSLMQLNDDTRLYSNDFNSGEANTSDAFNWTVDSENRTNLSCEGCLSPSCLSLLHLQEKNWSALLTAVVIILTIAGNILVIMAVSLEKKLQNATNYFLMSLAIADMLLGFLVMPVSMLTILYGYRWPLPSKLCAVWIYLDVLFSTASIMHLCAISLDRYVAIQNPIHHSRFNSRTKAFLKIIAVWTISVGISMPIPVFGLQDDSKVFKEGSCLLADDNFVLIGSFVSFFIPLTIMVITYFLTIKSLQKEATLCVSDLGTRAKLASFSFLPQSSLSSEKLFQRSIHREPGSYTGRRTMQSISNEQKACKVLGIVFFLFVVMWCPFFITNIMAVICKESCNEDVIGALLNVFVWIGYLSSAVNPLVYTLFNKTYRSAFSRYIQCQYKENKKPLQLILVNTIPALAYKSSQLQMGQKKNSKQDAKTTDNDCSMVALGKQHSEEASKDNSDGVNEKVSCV

| RM0 [2] | Structure (SMILES) | Ki [1] [µM] | Ki [3] | Ki [4] [µM] | Ki [5] [µM] | Ki [6] [µM] | selectivity in words ([3]; 5-HT6R vs competitive GPCRs tested) |
| --- | --- | --- | --- | --- | --- | --- | --- |
| 4.46 | CN1CCN(c2nc(N)nc(CN3C(=O)NC(c4ccc(Cl)cc4)(c4ccc(Cl)cc4)C3=O)n2)CC1 [Compound 8, 3-((4-Amino-6-(4-methylpiperazin-1-yl)-1,3,5-triazin-2-yl)methyl)-5,5-bis(4-chlorophenyl)imidazolidine-2,4-dione] | 3.05 | 1.06 µM | 6.85 | 0.594 | – | – |
| 3.58 | Cc1cccc(Cc2nc(N)nc(N3CCN(C)CC3)n2)c1 [Compound 3, reference compound] | – | – | – | – | – | – |
| 3.14 | CN1CCN(c2nc(N)nc(Cc3cccc4ccccc34)n2)CC1 [Compound 1, reference compound] | – | – | – | – | – | – |
| 3.51 | CN1CCN(c2nc(N)nc(CN3C(=O)NC(C)(c4ccc(Cl)cc4)C3=O)n2)CC1 (stereo not shown) [Compound 7, 3-((4-Amino-6-(4-methylpiperazin-1-yl)-1,3,5-triazin-2-yl)methyl)-5-(4-chlorophenyl)-5-methylimidazolidine-2,4-dione] | 28.1 | < 0.2 µM and 0.176 µM | 31.2 | 0.938 | – | – |
| 3.22 | CN1CCN(c2nc(N)nc(CN3C(=O)N(Cc4ccc(Cl)cc4)C(=O)C3(C)C)n2)CC1 [Compound 5, 3-(4-Chlorobenzyl)-1-((4-amino-6-(4-methylpiperazin-1-yl)-1,3,5-triazin-2-yl)methyl)-5,5-dimethylimidazolidine-2,4-dione] | 15.4 | 4.28 µM | 5.01 | 1.62 | – | – |
| 3.25 | CN1CCN(c2nc(N)nc(Cc3cccc(Cl)c3)n2)CC1 [Compound 2, reference compound] | – | – | – | – | – | – |

| Structure (SMILES) | RM0 [2] | Ki [1] [µM] | Ki [3] | Ki [4] [µM] | Ki [5] [µM] | Ki [6] [µM] | selectivity in words ([3]; 5-HT6R vs competitive GPCRs tested) |
| --- | --- | --- | --- | --- | --- | --- | --- |
| CN1CCN(c2nc(N)nc(CN3C(=O)N(Cc4ccc5ccccc5c4)C(C)(C)C3=O)n2)CC1 [Compound 18] | 4.04 | 5.72 | < 0.2 µM and 0.182 µM | 0.888 | 1.53 | 1.91 | – |
| CN1CCN(c2nc(N)nc(CN3C(=O)NC(C)(c4cccc5ccccc45)C3=O)n2)CC1 (stereo not shown) [Compound 25, 3-((4-Amino-6-(4-methylpiperazin-1-yl)-1,3,5-triazin-2-yl)methyl)-5-methyl-5-(naphthalen-1-yl)imidazolidine-2,4-dione] | 4.16 | 7.15 | < 0.2 µM and 0.121 µM | 7.81 | 3.37 | 8.08 | highly selective |
| CN1CCN(c2nc(N)nc(CN3C(=O)NC(C)(c4ccc(Cl)c(Cl)c4Cl)C3=O)n2)CC1 (stereo not shown) [Compound 23, 3-((4-Amino-6-(4-methylpiperazin-1-yl)-1,3,5-triazin-2-yl)methyl)-5-(2,3,4-trichlorophenyl)-5-methylimidazolidine-2,4-dione] | 4.49 | 6.03 | < 0.2 µM and 0.195 µM | 4.74 | 8.9 | 3.43 | – |
